The text below walks through data of ChEMBL document CHEMBL5154710, “Discovery of small molecules interacting at lactate dehydrogenases tetrameric interface using a biophysical screening cascade” (Eur J Med Chem, 2022).

For orientation: Kd means the concentration at which binding is half-saturated. Broadly, the ΔTm is the shift of the melting midpoint relative to a reference. As usually defined, the IC50 is the concentration needed to halve the response being measured.

Assay [1] is described as follows: Stabilization of Red-dye-NHS fluorescent-labeled human LDH-Htr expressed in Escherichia coli assessed as dissociation constant by MST assay.
A short description of assay [2]: Destabilization of Red-dye-NHS fluorescent-labeled human LDH-5 expressed in Escherichia coli assessed as dissociation constant by MST assay.
Assay [3] can be described thus: Destabilization of Red-dye-NHS fluorescent-labeled human LDH-1 expressed in Escherichia coli assessed as dissociation constant by MST assay.
For assay [4], the species on record is Homo sapiens. The experiment in a line: Stabilization of human LDH-Htr expressed in Escherichia coli assessed as change in melting temperature at 1 mM heated for 3 mins by NanoDSF assay. For orientation: In DSF a fluorescence change marks the thermal transition of the protein.
The species named for assay [5] is Homo sapiens. The experiment in a line: Destabilization of human LDH-5 expressed in Escherichia coli assessed as change in melting temperature at 1 mM heated for 3 mins by NanoDSF assay.
The species entered for assay [6] is Homo sapiens. The assay is described as follows: Destabilization of human LDH-1expressed in Escherichia coli assessed as change in melting temperature at 1 mM heated for 3 mins by NanoDSF assay.
Assay [7] is filed under the species Homo sapiens. The experiment in a line: Displacement of macro-cycle 7 from human LDH-Htr expressed in Escherichia coli assessed as decay in saturation transfer at 100 uM by saturation transfer difference-1H NMR analysis.
Assay [8] in a line: Inhibition of LDH-5 (unknown origin) assessed as denaturation of LDH-5 using NADH and pyruvate as substrate by spectrophotometric analysis. More on the design: species or system Homo sapiens.

Take `Nc1nc2ccccc2n1Cc1ccc(F)cc1`: the Kd in assay [1] amounted to 183 µM; in assay [2], 324 µM; in assay [3], 48 µM. For the same compound, the ΔTm in assay [4] was 0.8 °C; in assay [5], -2.6 °C; in assay [6] it was 0.4 °C.
For `CNCCCC12CCC(c3ccccc31)c1ccccc12`, the results for the ΔTm in assay [4], in assay [5] and in assay [6] were 4.6 °C, -2.7 °C and -1.4 °C, respectively.
As to `O=C(O)c1cc(-c2ccc(F)cc2F)ccc1O` [DIFLUNISAL], the values for the Kd in assay [1], in assay [2] and in assay [3] were 1000 µM, 343 µM and 116 µM, respectively. The ΔTm in assay [4] is 3.1 °C; in assay [5], -2.1 °C; in assay [6], 0.1 °C.
On to `O=C(O)c1ccccc1Nc1cccc(C(F)(F)F)c1` [FLUFENAMIC ACID], for which the Kd in assay [1] worked out at 900 µM; in assay [3], 1700 µM. Besides, the shift in melting temperature (ΔTm) is 1.9 °C in assay [4], -1.7 °C in assay [5] and 0.4 °C in assay [6].
Consider `Cc1ccc(/C(=C\CN2CCCC2)c2ccccn2)cc1` [TRIPROLIDINE], for which the Activity in assay [7] came out at 40%. For the same compound, in assay [8], the IC50 was determined as 7600 µM.
